From patent US20260234180A1, “AMINO ACID DERIVATIVE, PREPARATION METHOD THEREFOR, AND PHARMACEUTICAL COMPOSITION FOR TREATING HEPATITIS, COMPRISING SAME” (priority 2021, published 2026)

What follows are molecules tested on HBV virus (assay: HBV infection of HepG2-NTCP cells, HBeAg ELISA analysis). Settings: 20 μM, O.D. 450 nm.
Assay type: cell-based, hepatitis B virus (HBV)
Experimental: Specifically, the HepG2-NTCP cell line was cultured on a 6-well plate, incubation was performed overnight, HBV inhibitors were treated at a concentration of 20 μM, and the positive control Myrcludex-B (MyrB) was treated at a concentration of 200 nM, followed by culture for 24 hours. After HBV infection into the cells to make HBV 3000 genome equivalent per ml/cell (Geq/cell), the cell culture medium was replaced (medium changing, MC) a day after the viral infection to remove the virus unattached to cell membranes. In order to measure an amount of virus that entered the cell, medium changing (MC) was performed once more 4 days after viral infection. 2 days after replacement, HBeAg ELISA analysis was performed using a supernatant, and Southern blot analysis was performed with cell pellets.
HBeAg ELISA analysis was performed using an HBeAg ELISA kit (sanbio, Wantai HBeAg ELISA, cat #WB-2496) for the supernatant obtained by the method in Experimental Example 4-1.
First, a negative control group (Mock), positive control group (MyrB), and samples according to the present disclosure were loaded, by 50 μl each to be triplicate, onto a 96-well plate coated with capture Ab. In this case, Example 1 (LCA-ILE), Example 44 (LCA-Val), Example 52 (LCA-Tyr), Example 51 (LCA-Ser), Example 55 (LCA-Glu), Example 2 (UDCA-Ile), Example 3 (UDCA-Val), Example 25 (LCA-Val-Trp), Example 10 (DCA-Ile), Comparative Example 1 (LCA), and Comparative Example 2 (UDCA) were used as the sample.
The HRP-conjugated detection antibody was loaded into each well by 50 μl, followed by a reaction at 37° C. for 30 minutes. Washing buffer (1×PBS, 0.5% Tween20) was added by 200 μl, and washing was performed 5 times. 50 μl of chromogen solution A and 50 μl of chromogen solution B were added to each well, and a reaction was carried out in the darkness at 37° C. for 15 minutes. The stop solution was added to each well by 50 μl each to stop the reaction, and the amount of HBeAg was measured by measuring the absorbance (optical density, O.D.) level in the 450 nm wavelength band.

SMILES	HBeAg absorbance level relative to Comparative Example 1 (LCA) and Comparative Example 2 (UDCA)	HBeAg absorbance level relative to the negative control group (Mock)
CC[C@@H](C)[C@H](NC(=O)CC[C@@H](C)[C@H]1CC[C@H]2[C@@H]3CC[C@@H]4C[C@H](O)CC[C@]4(C)[C@H]3C[C@H](O)[C@]12C)C(=O)O [Example 10, (2S,3R)-2-((R)-4-((3R,5R,8R,9S,10S,12S,13R,14S,17R)-3,12-dihydroxy-10,13-dimethyl-hexadecahydro-1H-cyclopenta[a]phenanthren-17-yl)pentanamido)-3-methylpentanoic acid]	lower	relatively lower
CC(C)[C@H](NC(=O)CC[C@@H](C)[C@H]1CC[C@H]2[C@@H]3[C@@H](O)C[C@@H]4C[C@H](O)CC[C@]4(C)[C@H]3CC[C@]12C)C(=O)O [Example 3, (S)-2-((R)-4-((3R,5S,7S,8R,9S,10S,13R,14S,17R)-3,7-dihydroxy-10,13-dimethyl-hexadecahydro-1H-cyclopenta[a]phenanthren-17-yl)pentanamido)-3-methylbutanoic acid]	lower	relatively lower
CC[C@@H](C)[C@H](NC(=O)CC[C@@H](C)[C@H]1CC[C@H]2[C@@H]3[C@@H](O)C[C@@H]4C[C@H](O)CC[C@]4(C)[C@H]3CC[C@]12C)C(=O)O [Example 2, (2S,3R)-2-((R)-4-((3R,5S,7S,8R,9S,10S,13R,14S,17R)-3,7-dihydroxy-10,13-dimethyl-hexadecahydro-1H-cyclopenta[a]phenanthren-17-yl)pentanamido)-3-methylpentanoic acid]	lower	relatively lower
CC(C)[C@H](NC(=O)CC[C@@H](C)[C@H]1CC[C@H]2[C@@H]3CC[C@@H]4C[C@H](O)CC[C@]4(C)[C@H]3CC[C@]12C)C(=O)O [Example 44, (S)-2-((R)-4-((3R,5R,8R,9S,10S,13R,14S,17R)-3-hydroxy-10,13-dimethyl-hexadecahydro-1H-cyclopenta[a]phenanthren-17-yl)pentanamido)-3-methylbutanoic acid]	lower	relatively lower
CC[C@@H](C)[C@H](NC(=O)CC[C@@H](C)[C@H]1CC[C@H]2[C@@H]3CC[C@@H]4C[C@H](O)CC[C@]4(C)[C@H]3CC[C@]12C)C(=O)O [Example 1, (2S,3R)-2-((R)-4-((3R,5R,8R,9S,10S,13R,14S,17R)-3-hydroxy-10,13-dimethyl-hexadecahydro-1H-cyclopenta[a]phenanthren-17-yl)pentanamido)-3-methylpentanoic acid]	lower	relatively lower
